In US20250163066A1, “PROTACs of MALT1” (TEGID THERAPEUTICS, INC., priority 2022, published 2025):

Experiments:
MALT1 = MALT1 (Homo sapiens (Human), UniProt Q9UDY8); assay: MALT1 enzymatic activity inhibition (fluorescence, Ac-LRSR-AMC substrate); assay type: biochemical; details: recombinant MALT1 1.5 ng/μl, Ac-LRSR-AMC 1 μM
How it was run: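 Recombinant human MALT1 (1.5 ng/μl final) preincubated 10 min at rt with compounds in 50 mM HEPES pH 7.2-7.4, 100 mM NaCl, 900 mM sodium citrate, 10 mM DTT; 1 μM Ac-LRSR-AMC then added. AMC fluorescence read at start and after 30 min 37 °C plus 30 min rt; difference gives signal, % inhibition fitted to IC50.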

[1] = test system: IL-2 MALT1-dependent release in Jurkat cells; assay: cells; assay type: cell-based; details: Homo sapiens; Jurkat cells stimulated with antiCD3/antiCD28 for 24 h; IL-2 ELISA; read-out: EC50, IL-2 MALT1-dependent release inhibition
Description: Jurkat cells (ATCC, USA) (100,000 cells/well in a 96 well flat-bottom plate (Greiner, #655061) were cultured in RPMI 1640 supplemented with 10% FBS at 37° C., 5% CO2 in a humidified cell culture incubator for 0.5-1 h. Then 10 μl/well 15× compound (or DMSO) was added in duplicates. Cells were incubated with compound in a humidified cell culture incubator for 0.5-1 h. After the incubation, 10 μl/well of 15× human antiCD3 HIT3a antibody (BioLegend) together with 10 μl/well of 15× human antiCD28 antibody (Invitrogen) were added to stimulate Jurkat cells for 24 h. After 24 h of stimulation, supernatants were collected and IL-2 levels in supernatants were assessed using IL-2 ELISA kit (Vector-Best, Russia).

Sequence of MALT1 (Q9UDY8 whole entry): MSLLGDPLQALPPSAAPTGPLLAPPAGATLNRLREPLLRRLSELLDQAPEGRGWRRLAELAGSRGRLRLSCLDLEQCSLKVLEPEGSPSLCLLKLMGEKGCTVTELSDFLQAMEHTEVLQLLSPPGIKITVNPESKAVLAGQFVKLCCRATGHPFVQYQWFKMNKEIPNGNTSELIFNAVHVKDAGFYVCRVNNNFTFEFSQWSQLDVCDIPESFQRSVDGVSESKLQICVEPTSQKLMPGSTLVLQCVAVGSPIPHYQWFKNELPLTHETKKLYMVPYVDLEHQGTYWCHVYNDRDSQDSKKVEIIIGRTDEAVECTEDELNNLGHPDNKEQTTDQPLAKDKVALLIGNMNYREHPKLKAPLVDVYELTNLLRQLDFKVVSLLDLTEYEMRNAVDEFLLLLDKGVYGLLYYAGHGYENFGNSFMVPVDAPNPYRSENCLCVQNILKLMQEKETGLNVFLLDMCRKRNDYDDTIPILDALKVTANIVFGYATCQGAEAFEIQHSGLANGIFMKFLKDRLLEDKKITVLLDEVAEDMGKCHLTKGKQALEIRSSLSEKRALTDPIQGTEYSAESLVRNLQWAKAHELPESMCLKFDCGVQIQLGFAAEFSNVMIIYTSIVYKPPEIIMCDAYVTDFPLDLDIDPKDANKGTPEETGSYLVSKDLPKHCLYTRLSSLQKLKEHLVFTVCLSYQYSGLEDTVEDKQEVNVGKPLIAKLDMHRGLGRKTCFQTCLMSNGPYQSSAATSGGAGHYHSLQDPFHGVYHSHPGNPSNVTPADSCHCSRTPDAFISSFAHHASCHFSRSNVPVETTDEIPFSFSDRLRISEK

Structure (SMILES): O=C1CCC(N2Cc3cc(N4CCN(C(=O)CCCCCc5nc(-c6ncc(NC(=O)Nc7cnc8ccnn8c7C7CCCC7)cc6Cl)no5)CC4)ccc3C2=O)C(=O)N1 (stereo not drawn) [Compound 3, 1-[5-chloro-6-[5-[6-[4-[2-(2,6-dioxo-3-piperidyl)-1-oxo-isoindolin-5-yl]piperazin-1-yl]-6-oxo-hexyl]-1,2,4-oxadiazol-3-yl]-3-pyridyl]-3-(7-cyclopentylpyrazolo[1,5-a]pyrimidin-6-yl)urea]
- EC50 (MALT1): ≤ 0.2 µM
- EC50 [1]: < 500 nM

Structure (SMILES): Cc1cc(NC(=O)Nc2cnc3ccnn3c2C2CCCC2)cnc1-c1noc(CC(C)(C)CC(=O)N2CCN(c3ccc4c(c3)CN(C3CCC(=O)NC3=O)C4=O)CC2)n1 (stereo not drawn) [Compound 10, 1-(7-cyclopentylpyrazolo[1,5-a]pyrimidin-6-yl)-3-[6-[5-[4-[4-[2-(2,6-dioxo-3-piperidyl)-1-oxo-isoindolin-5-yl]piperazin-1-yl]-2,2-dimethyl-4-oxo-butyl]-1,2,4-oxadiazol-3-yl]-5-methyl-3-pyridyl]urea]
- EC50 (MALT1): 0.2 to 0.5 µM
- EC50 [1]: 500 to 1000 nM

Structure (SMILES): Cc1cc(NC(=O)Nc2cnc3ccnn3c2C2CCCC2)cnc1-c1noc(CCCC(=O)N2CCN(c3ccc4c(c3)CN(C3CCC(=O)NC3=O)C4=O)CC2)n1 (stereo not drawn) [Compound 12, 1-(7-cyclopentylpyrazolo[1,5-a]pyrimidin-6-yl)-3-[6-[5-[4-[4-[2-(2,6-dioxo-3-piperidyl)-1-oxo-isoindolin-5-yl]piperazin-1-yl]-4-oxo-butyl]-1,2,4-oxadiazol-3-yl]-5-methyl-3-pyridyl]urea]
- EC50 (MALT1): ≤ 0.2 µM
- EC50 [1]: 1000 to 5000 nM

Structure (SMILES): Cc1cc(NC(=O)Nc2cnc3ccnn3c2C2CCCC2)cnc1-c1noc(CCC(=O)N2CCN(c3ccc4c(c3)CN(C3CCC(=O)NC3=O)C4=O)CC2)n1 (stereo not drawn) [Compound 13, 1-(7-cyclopentylpyrazolo[1,5-a]pyrimidin-6-yl)-3-[6-[5-[3-[4-[2-(2,6-dioxo-3-piperidyl)-1-oxo-isoindolin-5-yl]piperazin-1-yl]-3-oxo-propyl]-1,2,4-oxadiazol-3-yl]-5-methyl-3-pyridyl]urea]
- EC50 (MALT1): ≤ 0.2 µM
- EC50 [1]: > 5000 nM

Structure (SMILES): Cc1cc(NC(=O)Nc2cnc3ccnn3c2C2CCCC2)cnc1-c1noc(CCCCC(=O)N2CCN(c3ccc4c(c3)CN(C3CCC(=O)NC3=O)C4=O)CC2)n1 (stereo not drawn) [Compound 14, 1-(7-cyclopentylpyrazolo[1,5-a]pyrimidin-6-yl)-3-[6-[5-[5-[4-[2-(2,6-dioxo-3-piperidyl)-1-oxo-isoindolin-5-yl]piperazin-1-yl]-5-oxo-pentyl]-1,2,4-oxadiazol-3-yl]-5-methyl-3-pyridyl]urea]
- EC50 (MALT1): ≤ 0.2 µM
- EC50 [1]: 1000 to 5000 nM

Structure (SMILES): Cc1cc(NC(=O)Nc2cnc3ccnn3c2C2CCCC2)cnc1-c1noc(CCOCCN2CCN(c3ccc4c(c3)CN(C3CCC(=O)NC3=O)C4=O)CC2)n1 (stereo not drawn) [Compound 16, 1-(7-cyclopentylpyrazolo[1,5-a]pyrimidin-6-yl)-3-[6-[5-[2-[2-[4-[2-(2,6-dioxo-3-piperidyl)-1-oxo-isoindolin-5-yl]piperazin-1-yl]ethoxy]ethyl]-1,2,4-oxadiazol-3-yl]-5-methyl-3-pyridyl]urea]
- EC50 (MALT1): 0.2 to 0.5 µM
- EC50 [1]: 1000 to 5000 nM

Structure (SMILES): Cc1cc(NC(=O)Nc2cnc3ccnn3c2C2CCCC2)cnc1-c1noc(CCCCCN2CCN(c3ccc4c(c3)CN(C3CCC(=O)NC3=O)C4=O)CC2)n1 (stereo not drawn) [Compound 17, 1-(7-cyclopentylpyrazolo[1,5-a]pyrimidin-6-yl)-3-[6-[5-[5-[4-[2-(2,6-dioxo-3-piperidyl)-1-oxo-isoindolin-5-yl]piperazin-1-yl]pentyl]-1,2,4-oxadiazol-3-yl]-5-methyl-3-pyridyl]urea]
- EC50 (MALT1): ≤ 0.2 µM
- EC50 [1]: < 500 nM

Structure (SMILES): Cc1cc(NC(=O)Nc2cnc3ccnn3c2C2CCCC2)cnc1-c1noc(CCCN2CCN(c3ccc4c(c3)CN(C3CCC(=O)NC3=O)C4=O)CC2)n1 (stereo not drawn) [Compound 18, 1-(7-cyclopentylpyrazolo[1,5-a]pyrimidin-6-yl)-3-[6-[5-[3-[4-[2-(2,6-dioxo-3-piperidyl)-1-oxo-isoindolin-5-yl]piperazin-1-yl]propyl]-1,2,4-oxadiazol-3-yl]-5-methyl-3-pyridyl]urea]
- EC50 (MALT1): ≤ 0.2 µM
- EC50 [1]: < 500 nM

Structure (SMILES): Cc1cc(NC(=O)Nc2cnc3ccnn3c2C2CCCC2)cnc1-c1noc(CCCN2CCN(c3cc4c(cc3F)C(=O)N(C3CCC(=O)NC3=O)C4=O)CC2)n1 (stereo not drawn) [Compound 23, 1-(7-cyclopentylpyrazolo[1,5-a]pyrimidin-6-yl)-3-[6-[5-[3-[4-[2-(2,6-dioxo-3-piperidyl)-6-fluoro-1,3-dioxo-isoindolin-5-yl]piperazin-1-yl]propyl]-1,2,4-oxadiazol-3-yl]-5-methyl-3-pyridyl]urea]
- EC50 (MALT1): 0.2 to 0.5 µM
- EC50 [1]: < 500 nM

Structure (SMILES): O=C(CCOCCN1CCN(c2ccc3c(c2)CN(C2CCC(=O)NC2=O)C3=O)CC1)NCCOc1ncc(Cl)cc1NC(=O)Nc1cnc2ccnn2c1C1CCCC1 (stereo not drawn) [Compound 37, N-[2-[[5-chloro-3-[(7-cyclopentylpyrazolo[1,5-a]pyrimidin-6-yl)carbamoylamino]-2-pyridyl]oxy]ethyl]-3-[2-[4-[2-(2,6-dioxo-3-piperidyl)-1-oxo-isoindolin-5-yl]piperazin-1-yl]ethoxy]propanamide]
- EC50 (MALT1): 0.5 to 1 µM
- EC50 [1]: 1000 to 5000 nM

Structure (SMILES): O=C(CCOCCOCCN1CCN(c2ccc3c(c2)CN(C2CCC(=O)NC2=O)C3=O)CC1)NCCOc1ncc(Cl)cc1NC(=O)Nc1cnc2ccnn2c1C1CCCC1 (stereo not drawn) [Compound 38, N-[2-[[5-chloro-3-[(7-cyclopentylpyrazolo[1,5-a]pyrimidin-6-yl)carbamoylamino]-2-pyridyl]oxy]ethyl]-3-[2-[2-[4-[2-(2,6-dioxo-3-piperidyl)-1-oxo-isoindolin-5-yl]piperazin-1-yl]ethoxy]ethoxy]propanamide]
- EC50 (MALT1): 0.2 to 0.5 µM
- EC50 [1]: 1000 to 5000 nM

Structure (SMILES): Cc1cc(NC(=O)Nc2cnc3ccnn3c2C2CCCC2)cnc1N1CCN(c2ccc3c(c2)CN(C2CCC(=O)NC2=O)C3=O)CC1 (stereo not drawn) [Compound 54, 1-(7-cyclopentylpyrazolo[1,5-a]pyrimidin-6-yl)-3-[6-[4-[2-(2,6-dioxo-3-piperidyl)-1-oxo-isoindolin-5-yl]piperazin-1-yl]-5-methyl-3-pyridyl]urea]
- EC50 (MALT1): 1 to 5 µM
- EC50 [1]: > 5000 nM

Structure (SMILES): Cc1cc(NC(=O)Nc2cnc3ccnn3c2C2CCCC2)cnc1-c1noc(CCCCCN2CCN(c3cc4c(cc3F)C(=O)N(C3CCC(=O)NC3=O)C4=O)CC2)n1 (stereo not drawn) [Compound 55, 1-(7-cyclopentylpyrazolo[1,5-a]pyrimidin-6-yl)-3-[6-[5-[5-[4-[2-(2,6-dioxo-3-piperidyl)-6-fluoro-1,3-dioxo-isoindolin-5-yl]piperazin-1-yl]pentyl]-1,2,4-oxadiazol-3-yl]-5-methyl-3-pyridyl]urea]
- EC50 (MALT1): ≤ 0.2 µM
- EC50 [1]: 500 to 1000 nM

Structure (SMILES): O=C1CCC(N2Cc3cc(N4CCN(Cc5nc(-c6ncc(NC(=O)Nc7cnc8ccnn8c7C7CCCC7)cc6Cl)no5)CC4)ccc3C2=O)C(=O)N1 (stereo not drawn) [Compound 56, 1-[5-chloro-6-[5-[[4-[2-(2,6-dioxo-3-piperidyl)-1-oxo-isoindolin-5-yl]piperazin-1-yl]methyl]-1,2,4-oxadiazol-3-yl]-3-pyridyl]-3-(7-cyclopentylpyrazolo[1,5-a]pyrimidin-6-yl)urea]
- EC50 (MALT1): ≤ 0.2 µM
- EC50 [1]: < 500 nM

Structure (SMILES): Cc1cc(NC(=O)Nc2cnc3ccnn3c2C2CCCC2)cnc1-c1noc(CCCCN2CCN(c3cc4c(cc3F)C(=O)N(C3CCC(=O)NC3=O)C4=O)CC2)n1 (stereo not drawn) [Compound 57, 1-(7-cyclopentylpyrazolo[1,5-a]pyrimidin-6-yl)-3-[6-[5-[4-[4-[2-(2,6-dioxo-3-piperidyl)-6-fluoro-1,3-dioxo-isoindolin-5-yl]piperazin-1-yl]butyl]-1,2,4-oxadiazol-3-yl]-5-methyl-3-pyridyl]urea]
- EC50 (MALT1): ≤ 0.2 µM
- EC50 [1]: 1000 to 5000 nM

Structure (SMILES): O=C1CCC(N2Cc3cc(N4CCN(C(=O)CCCc5nc(-c6ncc(NC(=O)Nc7cnc8ccnn8c7C7CC7)cc6Cl)no5)CC4)ccc3C2=O)C(=O)N1 (stereo not drawn) [Compound 165, 1-[5-chloro-6-[5-[4-[4-[2-(2,6-dioxo-3-piperidyl)-1-oxo-isoindolin-5-yl]piperazin-1-yl]-4-oxo-butyl]-1,2,4-oxadiazol-3-yl]-3-pyridyl]-3-(7-cyclopropylpyrazolo[1,5-a]pyrimidin-6-yl)urea]
- EC50 (MALT1): ≤ 0.2 µM

Structure (SMILES): O=C1CCC(N2Cc3cc(N4CCN(CCCCc5nc(-c6ncc(NC(=O)Nc7cnc8ccnn8c7C7CC7)cc6Cl)no5)CC4)ccc3C2=O)C(=O)N1 (stereo not drawn) [Compound 166, 1-[5-chloro-6-[5-[4-[4-[2-(2,6-dioxo-3-piperidyl)-1-oxo-isoindolin-5-yl]piperazin-1-yl]butyl]-1,2,4-oxadiazol-3-yl]-3-pyridyl]-3-(7-cyclopropylpyrazolo[1,5-a]pyrimidin-6-yl)urea]
- EC50 (MALT1): ≤ 0.2 µM

Structure (SMILES): Cc1cc(NC(=O)Nc2cnc3ccnn3c2C2CC2)cnc1-c1noc(CCCCC(=O)N2CCN(c3ccc4c(c3)CN(C3CCC(=O)NC3=O)C4=O)CC2)n1 (stereo not drawn) [Compound 169, 1-(7-cyclopropylpyrazolo[1,5-a]pyrimidin-6-yl)-3-[6-[5-[5-[4-[2-(2,6-dioxo-3-piperidyl)-1-oxo-isoindolin-5-yl]piperazin-1-yl]-5-oxo-pentyl]-1,2,4-oxadiazol-3-yl]-5-methyl-3-pyridyl]urea]
- EC50 (MALT1): ≤ 0.2 µM
